The conditions of data set [1]: prior human studies; cited from earlier work.
Data set [2] concerns dementia-related cognitive impairment. Particulars: cited from earlier work.
The subject of another data set is ADHD. Nature of the data set: open-label Phase Ib clinical trial in adolescent ADHD subjects with CNV in an mGluR network gene. The format is in vivo, human. The procedure: Previously, an open-label Phase Ib clinical trial was conducted to study the safety, pharmacokinetics, and efficacy of fasoracetam (fasoracetam monohydrate) in adolescent subjects between the ages of 12 and 17 previously diagnosed with ADHD. Each of the study subjects in this clinical trial had one or more CNV in an mGluR network gene.

Data set [3] concerns group I and group II/III mGluRs. The following applies: in vitro studies (Hirouchi 2000); cited from earlier work.
Data set [4] has as its system adenylate cyclase activity. Particulars: cited from earlier work.
The subject of another data set is pediatric ADHD subjects. The following applies: compared to a placebo control; cited from earlier work.

SMILES strings stand for the structures.

The term half-life denotes the time needed for the level to fall by half in the phase considered.

For the compound `O=C1CC[C@H](C(=O)N2CCCCC2)N1` [fasoracetam], in data set [1], the bioavailability is 79%-97% and the half-life is 5 to 6.5 h. Also, the safety and tolerability entry in data set [2] (Phase I-III trials, dementia-related cognitive impairment) is “generally safe and well tolerated”. Besides, the “effects on psychiatric symptoms” value in data set [2] (Phase III data, cerebral infarct patients and adult dementia patients with cerebrovascular diseases) was “beneficial effects”. The efficacy in dementia entry in data set [2] (Phase III trials) was “did not show sufficient efficacy”. The “treatment of ADHD” value with ADHD (adolescent subjects ages 12 to 17 with one or more CNV in an mGluR network gene) is reported as “successfully treated”. For the same compound, the appetite result with ADHD (children tested in the ADHD clinical study) is “appetite was observed to be improved”. For the same compound, the “stimulation of mGluRs” value in data set [3] was “stimulate both group I and group II/III mGluRs”. The “adenylate cyclase activity through group II and III mGluRs” value in data set [4] (by stimulating group II and III mGluRs (Oka 1997)) was “may also inhibit adenylate cyclase activity”. In addition, the “adenylate cyclase activity through group I mGluRs” value in data set [4] (through activation of group I mGluRs (Oka 1997)) is “may stimulate adenylate cyclase activity”.
Take `NC(=O)CN1CCCC1=O` [piracetam]: in the data set on pediatric ADHD subjects, the ADHD symptoms result is reported as “increase ADHD symptoms”.

These data come from patent US11779577B2, “Nonselective metabotropic glutamate receptor activators for treatment of anorexia nervosa and binge eating disorder” (The Children's Hospital of Philadelphia, priority 2016, dated 2023).
